Laboratory results reported in ChEMBL document CHEMBL4842373, “C1'-Branched acyclic nucleoside phosphonates mimicking adenosine monophosphate: Potent inhibitors of Trypanosoma brucei adenine phosphoribosyltransferase” (Eur J Med Chem, 2021).

Experiment: Inhibition of Trypanosoma brucei adenine phosphoribosyltransferase expressed in Escherichia coli measured by spectrophotometric method

Row | SMILES | Ki [µM]
1 | Nc1ncnc2c1ncn2C(COCP(=O)(O)O)C1CC1 (configuration not stated) | 5.84
2 | Nc1ncnc2c1ncn2[C@H](CCOCP(=O)(O)O)OCCO | 37.2
3 | CO[C@H](COCP(=O)(O)O)n1cnc2c(N)ncnc21 | 9.88
4 | C#CC(COCP(=O)(O)O)n1cnc2c(N)ncnc21 (configuration not stated) | 26.7
5 | Nc1ncnc2c1ncn2C(COCCP(=O)(O)O)OCCO (configuration not stated) | > 30
6 | Nc1ncnc2c1ncn2C(CCP(=O)(O)O)OCCO (configuration not stated) | > 30
7 | Nc1ncnc2c1ncn2C(CO)COCP(=O)(O)O (configuration not stated) | 19.7
8 | Nc1ncnc2c1ncn2[C@@H](COCc1ccccc1)COCP(=O)(O)O | > 30
9 | CO[C@@H](COCP(=O)(O)O)n1cnc2c(N)ncnc21 | > 30
10 | Nc1ncnc2c1ncn2C(COCP(=O)(O)O)C(F)(F)F (configuration not stated) | > 30
11 | C=CC(COCP(=O)(O)O)n1cnc2c(N)ncnc21 (configuration not stated) | 16.3
12 | CC(C)[C@H](COCP(=O)(O)O)n1cnc2c(N)ncnc21 | 0.57
13 | Nc1ncnc2c1ncn2C(COCP(=O)(O)O)OCCO (configuration not stated) | 6.1
14 | Nc1ncnc2c1ncn2C(CCOCP(=O)(O)O)OCCO (configuration not stated) | 4.9
15 | CC[C@H](COCP(=O)(O)O)n1cnc2c(N)ncnc21 | 3.18
16 | CC(COCP(=O)(O)O)n1cnc2c(N)ncnc21 (configuration not stated) | > 30
17 | CC(C)[C@@H](COCP(=O)(O)O)n1cnc2c(N)ncnc21 | 17.5
18 | CCO[C@@H](COCP(=O)(O)O)n1cnc2c(N)ncnc21 | > 30
19 | Nc1ncnc2c1ncn2[C@@H](CCOCP(=O)(O)O)OCCO | 1.56
20 | Nc1ncnc2c1ncn2C(CCOCP(=O)(O)O)OCCCO (configuration not stated) | 3.21
21 | CCOC(COCP(=O)(O)O)n1cnc2c(N)ncnc21 (configuration not stated) | 3.95
22 | Nc1ncnc2c1ncn2[C@H](CO)COCP(=O)(O)O | 15.4
23 | CCC(COCP(=O)(O)O)n1cnc2c(N)ncnc21 (configuration not stated) | 11.8
24 | COC(COCP(=O)(O)O)n1cnc2c(N)ncnc21 (configuration not stated) | 13.1
25 | Nc1ncnc2c1ncn2[C@@H](COCP(=O)(O)O)C1CC1 | 2.95
26 | CCO[C@H](COCP(=O)(O)O)n1cnc2c(N)ncnc21 | 2.39
27 | Nc1ncnc2c1ncn2[C@H](COCc1ccccc1)COCP(=O)(O)O | 39
